Experiment [1] relates to SMMC-7721. Description: Cell cycle arrest in human SMMC7721 cells assessed as accumulation at G2 phase at 1 uM after 12 hrs by propidium iodide staining based flow cytometry (reference value: 18.97%). In kind it is functional.
Experiment [2] relates to SMMC-7721. The experiment in a line: Induction of apoptosis in human SMMC7721 cells assessed as late apoptotic cells at 1 uM after 12 hrs by Annexin V-FITC/PI staining based flow cytometry (reference value: 0.9%). In kind it is functional. For orientation: In flow cytometry, cells or beads pass a laser one at a time.
Experiment [3] deals with MCF7. The experiment in a line: Antiproliferative activity against human MCF7 cells after 72 hrs by MTT assay. In kind it is functional, cell-based. As to conditions: MCF7, 72 h. (Formazan colour is commonly taken as a measure of viable cells.)
In experiment [4] the test system is SMMC-7721. The experiment in a line: Induction of apoptosis in human SMMC7721 cells assessed as early apoptotic cells at 2 uM after 12 hrs by Annexin V-FITC/PI staining based flow cytometry (reference value: 2.8%). It is filed as functional.
The species named for experiment [5] is Homo sapiens. The experiment in a line: Inhibition of Wnt signaling pathway in human SMMC7721 cells assessed as increase in GSK3beta phosphorylation level up to 2 uM after 48 hrs by Western blot analysis. In kind it is cell-based.
Experiment [6] relates to SMMC-7721. The experiment in a line: Cell cycle arrest in human SMMC7721 cells assessed as accumulation at G2 phase at 4 uM after 12 hrs by propidium iodide staining based flow cytometry (reference value: 18.97%). It is filed as functional.
The test system of experiment [7] is SMMC-7721. The experiment in a line: Induction of apoptosis in human SMMC7721 cells assessed as late apoptotic cells at 2 uM after 12 hrs by Annexin V-FITC/PI staining based flow cytometry (reference value: 0.9%). In kind it is functional.
The test system of experiment [8] is L02. The experiment in a line: Cytotoxicity against human HL7702 cells up to 72 hrs by MTT assay. In kind it is cell-based. As to conditions: L02, 72 h.
Experiment [9] deals with SMMC-7721. The experiment in a line: Cell cycle arrest in human SMMC7721 cells assessed as accumulation at G1 phase at 4 uM after 12 hrs by propidium iodide staining based flow cytometry (reference value: 39.51%). In kind it is functional.
The species named for experiment [10] is Homo sapiens. Description: Inhibition of Wnt signaling pathway in human SMMC7721 cells assessed as reduction in Dvl2 expression level up to 2 uM after 48 hrs by Western blot analysis. It is filed as cell-based. (In general: A western blot detects proteins with antibodies after separation by electrophoresis.)
Experiment [11] relates to A549. The experiment in a line: Antiproliferative activity against human A549 cells after 72 hrs by MTT assay. As to conditions: A549, 72 h. In kind it is functional, cell-based.
Experiment [12] relates to MGC-803. The experiment in a line: Antiproliferative activity against human MGC803 cells after 72 hrs by MTT assay. In kind it is functional, cell-based. As to conditions: MGC-803, 72 h.
Experiment [13] concerns PC-3. Description: Antiproliferative activity against human PC3 cells after 72 hrs by MTT assay. It is filed as functional, cell-based. As to conditions: PC-3, 72 h.
The test system of experiment [14] is SMMC-7721. Description: Induction of apoptosis in human SMMC7721 cells assessed as necrotic cells at 2 uM after 12 hrs by Annexin V-FITC/PI staining based flow cytometry (reference value: 0.8%). It is filed as functional.
Experiment [15] has as its system SMMC-7721. Description: Cell cycle arrest in human SMMC7721 cells assessed as accumulation at G2 phase at 2 uM after 12 hrs by propidium iodide staining based flow cytometry (reference value: 18.97%). It is filed as functional.
In experiment [16] the test system is SMMC-7721. Description: Cell cycle arrest in human SMMC7721 cells assessed as accumulation at S phase at 4 uM after 12 hrs by propidium iodide staining based flow cytometry (reference value: 36.98%). In kind it is functional.
Experiment [17] concerns SMMC-7721. Description: Induction of apoptosis in human SMMC7721 cells assessed as early apoptotic cells at 0.5 uM after 12 hrs by Annexin V-FITC/PI staining based flow cytometry (reference value: 2.8%). It is filed as functional.
Experiment [18] concerns SMMC-7721. Description: Inhibition of colony formation in human SMMC7721 cells after two weeks by crystal violet staining based assay. In kind it is functional, cell-based.
In experiment [19] the test system is SMMC-7721. The experiment in a line: Antiproliferative activity against human SMMC7721 cells after 72 hrs by MTT assay. It is filed as functional, cell-based. The conditions noted are these: SMMC-7721, 72 h.
Experiment [20] is filed under the species Homo sapiens. The experiment in a line: Inhibition of Wnt signaling pathway in human SMMC7721 cells assessed as increase in APC expression level up to 2 uM after 48 hrs by Western blot analysis. It is filed as cell-based.
Experiment [21] relates to SMMC-7721. Description: Induction of apoptosis in human SMMC7721 cells assessed as viable cells at 2 uM after 12 hrs by Annexin V-FITC/PI staining based flow cytometry (reference value: 95.4%). The conditions noted are these: SMMC-7721, 12 h, read-out: Activity. In kind it is functional.
For experiment [22], the system named is SMMC-7721. Description: Induction of apoptosis in human SMMC7721 cells assessed as early apoptotic cells at 1 uM after 12 hrs by Annexin V-FITC/PI staining based flow cytometry (reference value: 2.8%). It is filed as functional.
Experiment [23] relates to SMMC-7721. Description: Inhibition of cell migration in human SMMC7721 cells after 24 hrs by wound healing based inverted microscopic analysis. It is filed as functional.
Experiment [24] concerns SMMC-7721. The experiment in a line: Induction of apoptosis in human SMMC7721 cells assessed as late apoptotic cells at 0.5 uM after 12 hrs by Annexin V-FITC/PI staining based flow cytometry (reference value: 0.9%). In kind it is functional.
The species entered for experiment [25] is Homo sapiens. The experiment in a line: Inhibition of Wnt signaling pathway in human SMMC7721 cells assessed as reduction in beta-catenin expression level up to 2 uM after 48 hrs by Western blot analysis. In kind it is cell-based.
The subject of experiment [26] is SMMC-7721. The experiment in a line: Cell cycle arrest in human SMMC7721 cells assessed as accumulation at S phase at 1 uM after 12 hrs by propidium iodide staining based flow cytometry (reference value: 36.98%). In kind it is functional.
In experiment [27] the test system is SMMC-7721. Description: Induction of apoptosis in human SMMC7721 cells assessed as necrotic cells at 0.5 uM after 12 hrs by Annexin V-FITC/PI staining based flow cytometry (reference value: 0.8%). In kind it is functional.
Experiment [28] has as its system SMMC-7721. The experiment in a line: Cell cycle arrest in human SMMC7721 cells assessed as accumulation at G1 phase at 2 uM after 12 hrs by propidium iodide staining based flow cytometry (reference value: 39.51%). It is filed as functional.
Experiment [29] concerns SMMC-7721. Description: Cell cycle arrest in human SMMC7721 cells assessed as accumulation at G1 phase at 1 uM after 12 hrs by propidium iodide staining based flow cytometry (reference value: 39.51%). It is filed as functional.
For experiment [30], the system named is SMMC-7721. Description: Induction of apoptosis in human SMMC7721 cells assessed as viable cells at 1 uM after 12 hrs by Annexin V-FITC/PI staining based flow cytometry (reference value: 95.4%). As to conditions: SMMC-7721, 12 h, read-out: Activity. It is filed as functional.
The test system of experiment [31] is SMMC-7721. Description: Induction of apoptosis in human SMMC7721 cells assessed as necrotic cells at 1 uM after 12 hrs by Annexin V-FITC/PI staining based flow cytometry (reference value: 0.8%). In kind it is functional.
The test system of experiment [32] is ECa-109 cell line. The experiment in a line: Antiproliferative activity against human ECA109 cells after 72 hrs by MTT assay. The conditions noted are these: ECa-109, 72 h. In kind it is functional, cell-based.
In experiment [33] the test system is SMMC-7721. The experiment in a line: Inhibition of colony formation in human SMMC7721 cells assessed as colony formation efficiency at 2 uM after two weeks by crystal violet staining based assay. It is filed as functional. On the set-up: scale not given: the % may be the effect or the level left.
The test system of experiment [34] is SMMC-7721. Description: Cell cycle arrest in human SMMC7721 cells assessed as accumulation at S phase at 2 uM after 12 hrs by propidium iodide staining based flow cytometry (reference value: 36.98%). It is filed as functional.
The subject of experiment [35] is SMMC-7721. The experiment in a line: Induction of apoptosis in human SMMC7721 cells assessed as viable cells at 0.5 uM after 12 hrs by Annexin V-FITC/PI staining based flow cytometry (reference value: 95.4%). As to conditions: SMMC-7721, 12 h, read-out: Activity. In kind it is functional.

From ChEMBL document CHEMBL4265905, “Synthesis and biological evaluation of novel Jiyuan Oridonin A-1,2,3-triazole-azole derivatives as antiproliferative agents” (Eur J Med Chem, 2018) come the findings set out here.

Structures are written as SMILES. Activity calls are given as the source filed them. No cut-off for these calls is given here.

With `C=C1C(=O)[C@]23[C@H](O)[C@H]1C[C@H](O)[C@H]2[C@]12CCCC(C)(C)[C@H]1C[C@H]3O[C@@H]2OCCCn1cc(CN2C(=O)S/C(=C/C)C2=O)nn1`, the Activity turned out to be 37.61% in [1]; 5.8% in experiment [2]; 29.2% in [4]; 3.97% in [6]; 2.5% in experiment [7]; 75.69% in [9]. The Activity is 0.1% in experiment [14]; 26.8% in [15]; 22.27% in [16]; 7.2% in experiment [17]; 13.7% in experiment [22]; 5.4% in [24]. Moreover, the Activity in [26] is listed as 13.84%; in experiment [27], 1.1%; in experiment [28] it was 54.97%; in [29] it was 45.85%; in experiment [31] it was 1.2%; in experiment [33], 5.7%. Moreover, the Activity in experiment [34] came out at 12.93%. In addition, the IC50 (in general, the concentration at which inhibition is half-maximal) in [3] was found to be 1.5 µM; in experiment [8] it was 18.1 µM; in experiment [11], 3.5 µM; in experiment [12], 0.6 µM; in [13] it was 5 µM; in [19] it was 0.2 µM. Also, in experiment [32], the concentration for half-maximal inhibition (IC50) was 2.7 µM. Further, the inhibition result in experiment [5], in experiment [10], in experiment [20] and in experiment [25] was “Active” each time. Also, the inhibition entry in experiment [18] and in [23] was “Dose-dependent effect” throughout. The viability at 2 µM in experiment [21] was found to be 68.2%. For the same compound, the viability at 1 µM in experiment [30] turned out to be 79.3%. In [35], the viability at 0.5 µM was 86.2%.

Take `C=C1C(=O)[C@]23[C@H](O)[C@H]1C[C@H](O)[C@H]2[C@]12CCCC(C)(C)[C@H]1C[C@H]3O[C@H]2O`: the IC50 in experiment [3] was determined as 21.1 µM; in [11] it was 16.4 µM; in [12], 27.1 µM; in experiment [13], 24.3 µM; in experiment [19], 14.6 µM; in [32], 25.2 µM.
